Results reported in US20080187512A1, “Treatment for spinal muscular atrophy” (Academia Sinica, priority 2007, published 2008).
Where two headings read alike, the source gives them in different places.

How the values were obtained:
SMN2 = SMN2 splicing pattern, semi-quantitative RT-PCR in SMA-like MEFs; type: cell-based, mouse; set-up: key to SMN2 splicing pattern MEF: −: no effect; +: effective; +++: most effective
Crk = details: SMN2-NSC34 cells
Experimental: (§1) Western blot analysis. Cells treated by dsRNA, compounds or Stat5A1*6 transfected were detached by scraping, pelletting and rinsing in PBS. Cell pellets were collected after centrifugation and lysed on ice in modified RIPA buffer (50 mM Tris-HCl (pH7.4), 1% NP-40, 0.25% deoxycholic acid, 0.15M NaCl, 1 mM EDTA, 1 mM PMSF/NaF/sodium orthovanadate, and protease inhibitors cocktail (Roche, Mannheim, Germany) for 30 min. After centrifugation, the supernatants were collected and kept frozen at −20° C. Protein concentrations were determined by Bio-Rad protein assay method. For Western blot analysis, protein samples were boiled for 5 min and electrophoresed on 8% or 10% SDS-polyacrylamide gel in a 1× running buffer (25 mM Tris, 192 mM glycine, 3.4 mM SDS, pH 8.3) and subsequently electrotransferred to Polyvinylidene Fluoride tansfer membrane (Pall, Pensacola, Fla.) using a TE 22 mini-tank transfer unit (Amersham Biosciences, San Francisco, Calif.) at 35 volts overnight in transfer buffer (25 mM Tris, 192 mM glycine, 20% methanol, pH8.3). The blotting membranes were incubated in blocking solution (PBS, 5% non-fat milk, 0.2% Tween-20) for 1 hour at room temperature, and then incubated in the same solution with the primary antibody (human-specific SMN/1:1000; SMN/1:5000, Transduction Laboratories, Lexington, Ky.; phospho-Stat5a/b/1:1000, Cell signaling, Beverly, Mass.; phospho-Jak2/1:1000, Upstate, Lake Placid, N.Y.; Flag BioM2/1:1000, Sigma, St. Louis, MO; c-myc/1:200, Santa Cruz Biotech, Santa Cruz, Calif.; α-Tubilin/1:10000, Upstate, Lake Placid, N.Y., MO), overnight at 4° C. The membranes were washed and incubated in the blocking solution with the proper HRP-conjugated secondary antibody at 1/5000 dilution (Chemicon, Temecula, Calif.) for 1 hour at room temperature. After washing three times in PBS containing 0.1% Tween-20, the signals were visualized by autoradiography (Fuji Medical X-ray film, Fuji Photos, Tokyo) using enhanced chemi-luminescence (ECL detection system; Perkin-Elmer, Boston, Calif.). Western blot quantification was performed by scanning the auto-radiographs with a computerized densitometer. Signal intensities were determined by densitometry analysis (Fuji film LAS-1000 plus pictography) using the program Phoreticx 1D (Phoreticx International).

GRB14 = details: SMN2-NSC34 cells
Experimental: as §1

GRB2 = details: SMN2-NSC34 cells
Experimental: as §1

Jak1 (pY1022/pY1023) = details: SMN2-NSC34 cells
Experimental: as §1

KAP = details: SMN2-NSC34 cells
Experimental: as §1

LAR = details: SMN2-NSC34 cells
Experimental: as §1

MKP2 = details: SMN2-NSC34 cells
Experimental: as §1

NCK = details: SMN2-NSC34 cells
Experimental: as §1

PI3-Kinase = details: SMN2-NSC34 cells
Experimental: as §1

PTP1B = details: SMN2-NSC34 cells
Experimental: as §1

PTP1C/SHP1 = details: SMN2-NSC34 cells
Experimental: as §1

RPTPα = details: SMN2-NSC34 cells
Experimental: as §1

RPTPβ = details: SMN2-NSC34 cells
Experimental: as §1

SHC = details: SMN2-NSC34 cells
Experimental: as §1

ShcC = details: SMN2-NSC34 cells
Experimental: as §1

P38 (pT180/pY182) = test: Signaling pathway screen in SMN2-NSC34 cells; type: cell-based, mouse
Stat2 (pY705) = test: Signaling pathway screen in SMN2-NSC34 cells; type: cell-based, mouse
Stat5 (pT694) = test: Signaling pathway screen in SMN2-NSC34 cells; type: cell-based, mouse; set-up: Stat5 (pT694) cellular response: key: −: decreasing; +/−: no activation; +: slight activation; ++: minor activation; +++: significant activation
Experimental: as §1
(§2) Therefore, TSA, aclarubicin and sodium vanadate all induce the activation of Stat5A in motor neuron-like NSC34 cells.

Stat6 (pT641) = test: Signaling pathway screen in SMN2-NSC34 cells; type: cell-based, mouse
Jak2 (pY1007/pY1008) = test: Signaling pathway screen in SMN2-NSC34 cells; type: cell-based, mouse; on Jak2 (pY1007/pY1008) cellular response: key: −: decreasing; +/−: no activation; +: slight activation; ++: minor activation; +++: significant activation
Experimental: as §1, §2

In the case of Sodium vanadate, the “SMN2 splicing pattern MEF” value (SMN2) is reported as “+++”, the “influence on SMN2 expression” value (SMN2) is reported as “found to influence SMN2 expression” and the Crk cellular response (Crk; 4 hrs) is reported as “+/−”. For the same substance, the Crk cellular response (Crk; 8 hrs) was “+/−”, the GRB14 cellular response (GRB14; 4 hrs) was “+/−” and the GRB14 cellular response (GRB14; 8 hrs) was “+/−”. The GRB2 cellular response (GRB2; 4 hrs) was “+/−”, the GRB2 cellular response (GRB2; 8 hrs) was “+/−” and the “Jak1 (pY1022/pY1023) cellular response” value (Jak1 (pY1022/pY1023); 4 hrs) was “+/−”. For the same substance, the “Jak1 (pY1022/pY1023) cellular response” value (Jak1 (pY1022/pY1023); 8 hrs) was “+”, the KAP cellular response (KAP; 4 hrs) was “+/−” and the KAP cellular response (KAP; 8 hrs) was “−”. For the same substance, the LAR cellular response (LAR; 4 hrs) was “+/−”, the LAR cellular response (LAR; 8 hrs) was “+/−” and the MKP2 cellular response (MKP2; 4 hrs) was “−”. The MKP2 cellular response (MKP2; 8 hrs) was “−”, the NCK cellular response (NCK; 4 hrs) was “+/−” and the NCK cellular response (NCK; 8 hrs) was “+/−”. For the same substance, the PI3-Kinase cellular response (PI3-Kinase; 4 hrs) was “+/−”, the PI3-Kinase cellular response (PI3-Kinase; 8 hrs) was “+/−” and the PTP1B cellular response (PTP1B; 4 hrs) was “+/−”. For the same substance, the PTP1B cellular response (PTP1B; 8 hrs) was “−”, the PTP1C/SHP1 cellular response (PTP1C/SHP1; 4 hrs) was “+/−” and the PTP1C/SHP1 cellular response (PTP1C/SHP1; 8 hrs) was “−”. For the same substance, the RPTPα cellular response (RPTPα; 4 hrs) was “+/−”, the RPTPα cellular response (RPTPα; 8 hrs) was “−” and the RPTPβ cellular response (RPTPβ; 4 hrs) was “+/−”. For the same substance, the RPTPβ cellular response (RPTPβ; 8 hrs) was “+/−”, the SHC cellular response (SHC; 4 hrs) was “+/−” and the SHC cellular response (SHC; 8 hrs) was “+/−”. The ShcC cellular response (ShcC; 4 hrs) was “+/−”, the ShcC cellular response (ShcC; 8 hrs) was “+/−” and the “P38 (pT180/pY182) cellular response” value (P38 (pT180/pY182); 4 hrs) was “+/−”. The “P38 (pT180/pY182) cellular response” value (P38 (pT180/pY182); 8 hrs) was “+”, the “Stat2 (pY705) cellular response” value (Stat2 (pY705); 4 hrs) was “+/−” and the “Stat2 (pY705) cellular response” value (Stat2 (pY705); 8 hrs) was “+/−”. The “Stat5 (pT694) cellular response” value (Stat5 (pT694)) was “++ and +++”, the “Stat5 phosphorylation status at 8 hours” value (Stat5 (pT694)) was “remained activated” and the “phosphorylation level of Stat5 increased compared to control cells” value (Stat5 (pT694)) was “about 6 fold”. The “Stat6 (pT641) cellular response” value (Stat6 (pT641); 4 hrs) was “−”, the “Stat6 (pT641) cellular response” value (Stat6 (pT641); 8 hrs) was “−” and the “Jak2 (pY1007/pY1008) cellular response” value (Jak2 (pY1007/pY1008)) was “+ and ++”. The Jak2 activation (Jak2 (pY1007/pY1008)) was “found activated”.
